From patent US20250197375A1, “PYRIMIDINES AND METHODS OF THEIR USE” (Kineta, Inc., priority 2021, published 2025)

Experiments:
[1] = tested on: PIKFYVE TDP-43 yeast strain; experiment: Propidium iodide viability assay in PIKFYVE TDP-43 yeast strain; assay type: cell-based; settings: for IC50: Saccharomyces cerevisiae, PIKFYVE TDP-43 yeast strain, reduction in PI-positive cells, 15 to 0.11 μM, 24 hours; for PIKfyve TDP-43 (active/inactive): PIKFYVE TDP-43 yeast model
Description: Generation of TDP-43 yeast model expressing human PIKfyve. Human PIKFYVE (“entry clone”) was cloned into pAG416GPDccdB (“destination vector”) according to standard Gateway cloning protocols (Invitrogen, Life Technologies). […] Lithium acetate/polyethylene glycol-based transformation was used to introduce the above PIKFYVE plasmid into a BY4741 yeast strain auxotrophic for the ura3 gene and deleted for two transcription factors that regulate the xenobiotic efflux pumps, a major efflux pump, and FAB1, the yeast ortholog of PIKFYVE (MATa, snq2::KILeu2; pdr3::Klura3; pdr1::NATMX; fab1::G418^R, his3; leu2; ura3; met15; LYS2+) (FIG. 2). Transformed yeast were plated on solid agar plates with complete synthetic media lacking uracil (CSM-ura) and containing 2% glucose. Individual colonies harboring the control or PIKFYVE TDP-43 plasmids were recovered. A plasmid containing wild-type TDP-43 under the transcriptional control of the GAL1 promoter and containing the hygromycin-resistance gene as a selectable marker was transformed into the fab1::G418^R pAG416GPD-PIKFYVE yeast strain (FIG. 1). Transformed yeast were plated on CSM-ura containing 2% glucose and 200 µg/mL G418 after overnight recovery in media lacking antibiotic. Multiple independent isolates were further evaluated for cytotoxicity and TDP-43 expression levels.
Viability Assay. A control yeast strain with the wild-type yeast FAB1 gene and TDP-43 (“FAB1 TDP-43”, carries empty pAG416 plasmid), and the “PIKFYVE TDP-43” yeast strain, were assessed for toxicity using a propidium iodide viability assay. Both yeast strains were transferred from solid CSM-ura/2% glucose agar plates into 3 mL of liquid CSM-ura/2% glucose media for 6-8 hours at 30° C. with aeration. […] Log-phase overnight cultures were diluted to OD600 of 0.005 in CSM-ura containing either 2% raffinose or galactose and 150 µL dispensed into each well of a flat bottom 96-well plates. […] Wells containing DMSO alone were also evaluated as controls for compound effects. […] Cultures were immediately mixed to ensure compound distribution and covered plates incubated at 30° C. for 24 hours in a stationary, humified incubator.
(§1) Upon the completion of incubation, cultures were assayed for viability using propidium iodide (PI) to stain for dead/dying cells. A working solution of PI was made where, for each plate, 1 µL of 10 mM PI was added to 10 mL of CSM-ura (raffinose or galactose). The final PI solution (50 µL/well) was dispensed into each well of a new round bottom 96-well plate. The overnight 96-well assay plate was then mixed with a multichannel pipet and 50 µL transferred to the PI-containing plate. This plate was then incubated for 30 minutes at 30° C. in the dark. A benchtop flow cytometer (Miltenyi MACSquant) was then used to assess red fluorescence (B2 channel), forward scatter, and side scatter (with following settings: gentle mix, high flow rate, fast measurement, 10,000 events). Intensity histograms were then gated for “P-positive” or “PI-negative” using the raffinose and galactose cultures treated with DMSO as controls. The DMSO controls for raffinose or galactose-containing cultures were used to determine the window of increased cell death and this difference set to 100. All compounds were similarity gated and then compared to this maximal window to establish the percent reduction in PI-positive cells.

FAB1 TDP-43 yeast strain = experiment: Propidium iodide viability assay in FAB1 TDP-43 control yeast strain; assay type: cell-based; settings: for FAB1 TDP-43 (active/inactive): FAB1 TDP-43 yeast model
Protocol: Viability Assay. A control yeast strain with the wild-type yeast FAB1 gene and TDP-43 (“FAB1 TDP-43”, carries empty pAG416 plasmid), and the “PIKFYVE TDP-43” yeast strain, were assessed for toxicity using a propidium iodide viability assay. Both yeast strains were transferred from solid CSM-ura/2% glucose agar plates into 3 mL of liquid CSM-ura/2% glucose media for 6-8 hours at 30° C. with aeration. Yeast cultures were then diluted to an optical density at 600 nm wavelength (OD600) of 0.005 in 3 mL of CSM-ura/2% raffinose and grown overnight at 30° C. with aeration to an OD600 of 0.3-0.8. Log-phase overnight cultures were diluted to OD600 of 0.005 in CSM-ura containing either 2% raffinose or galactose and 150 µL dispensed into each well of a flat bottom 96-well plates. Compounds formulated in 100% dimethyl sulfoxide (DMSO) were serially diluted in DMSO and 1.5 µL diluted compound transferred to the 96-well plates using a multichannel pipet. Wells containing DMSO alone were also evaluated as controls for compound effects. Tested concentrations ranged from 15 µM to 0.11 µM. Cultures were immediately mixed to ensure compound distribution and covered plates incubated at 30° C. for 24 hours in a stationary, humified incubator.
as §1

PIKfyve = PIKfyve (Homo sapiens (Human), UniProt Q9Y2I7); experiment: PIKfyve EEA1 Assay (endosomal vesicle enlargement, high content imaging in U2OS cells); assay type: cell-based; settings: 3 hours of treatment, activity relative to maximal APY0201 activity
Protocol: PIKfyve EEA1 Assay. Genetic or pharmacological disruption of PIKfyve activity results in enlargement of endosomal vesicles. This enlargement was utilized as a surrogate readout of PIKFyve inhibition for routine triage of PIKfyve inhibitors. U2OS cells grown in 96-well assay plates were treated with compound diluted in DMEM media containing 10% fetal bovine serum. After 3 hours of treatment, cells were fixed with paraformaldehyde, permeabilized with 0.2% Triton-X in phosphate buffered saline and stained against EEA1. During the secondary antibody staining, cells were also stained with CellMask™ Deep Red and Hoechst to detect cytoplasms and nuclei respectively. Endosomal structures were visualized using a high content imager at 40× magnification. Images were analyzed using a linear classifier algorithm integrating EEA1 spot size, intensity and texture trained on images of cells treated with the potent reference compound APY0201. Compound activity was calculated by subtracting the DMSO signal and calculating percentage activity relative to maximal APY0201 activity. IC50 values were then calculated from concentration versus percent inhibition data by logistic regression.

[2] = molecular target: full-length human PIKFYVE (Homo sapiens (Human), UniProt Q9Y2I7, L932S/Q1183K/Q995L/S1033A/S696N/T998S); experiment: PIKfyve Biochemical Assay (ADP-Glo Kinase assay, GST-PIKFYVE); settings: ADP-Glo, 1 hour at room temperature, 10 μM to 3 nM in duplicate; read-out: PIKfyve Biochemistry IC50 (μM)*
Protocol: PIKfyve Biochemical Assay. The biochemical PIKFyve inhibition assays were run by Cama Biosciences according to proprietary methodology based on the Promega ADP-Glo™ Kinase assay. […] GST-PIKFYVE was purified by using glutathione sepharose chromatography and used in an ADP-Glo™ Kinase assay (Promega). Reactions were set up by adding the test compound solution, substrate solution, ATP solution and kinase solution, each at 4× final concentrations. Reactions were prepared with assay buffer (50 mM MOPS, 1 mM DTT, pH7.2), mixed, and incubated in black 384 well polystyrene plates for 1 hour at room temperature. ADP-Glo™ reagent was then added for 40 minutes, followed by kinase detection reagent for an additional 40 minutes. The kinase activity was evaluated by detecting relative light units on a luminescence plate reader. Samples were run in duplicate from 10 μM to 3 nM. […] IC50 values were calculated from concentration versus percent inhibition curves by fitting to a four-parameter logistic curve.
The biochemical PIKFyve inhibition assays were run by Cama Biosciences according to proprietary methodology based on the Promega ADP-Glo™ Kinase assay. […] GST-PIKFYVE was purified by using glutathione sepharose chromatography and used in an ADP-Glo™ Kinase assay (Promega).
Reactions were set up by adding the test compound solution, substrate solution, ATP solution and kinase solution, each at 4× final concentrations. Reactions were prepared with assay buffer (50 mM MOPS, 1 mM DTT, pH7.2), mixed, and incubated in black 384 well polystyrene plates for 1 hour at room temperature. ADP-Glo™ reagent was then added for 40 minutes, followed by kinase detection reagent for an additional 40 minutes. The kinase activity was evaluated by detecting relative light units on a luminescence plate reader. Samples were run in duplicate from 10 uM to 3 nM. […] IC50 values were calculated from concentration vs % inhibition curves by fitting to a four-parameter logistic curve.

full-length human PIKFYVE, sequence (Q9Y2I7 whole entry S696N/L932S/Q995L/T998S/S1033A/Q1183K): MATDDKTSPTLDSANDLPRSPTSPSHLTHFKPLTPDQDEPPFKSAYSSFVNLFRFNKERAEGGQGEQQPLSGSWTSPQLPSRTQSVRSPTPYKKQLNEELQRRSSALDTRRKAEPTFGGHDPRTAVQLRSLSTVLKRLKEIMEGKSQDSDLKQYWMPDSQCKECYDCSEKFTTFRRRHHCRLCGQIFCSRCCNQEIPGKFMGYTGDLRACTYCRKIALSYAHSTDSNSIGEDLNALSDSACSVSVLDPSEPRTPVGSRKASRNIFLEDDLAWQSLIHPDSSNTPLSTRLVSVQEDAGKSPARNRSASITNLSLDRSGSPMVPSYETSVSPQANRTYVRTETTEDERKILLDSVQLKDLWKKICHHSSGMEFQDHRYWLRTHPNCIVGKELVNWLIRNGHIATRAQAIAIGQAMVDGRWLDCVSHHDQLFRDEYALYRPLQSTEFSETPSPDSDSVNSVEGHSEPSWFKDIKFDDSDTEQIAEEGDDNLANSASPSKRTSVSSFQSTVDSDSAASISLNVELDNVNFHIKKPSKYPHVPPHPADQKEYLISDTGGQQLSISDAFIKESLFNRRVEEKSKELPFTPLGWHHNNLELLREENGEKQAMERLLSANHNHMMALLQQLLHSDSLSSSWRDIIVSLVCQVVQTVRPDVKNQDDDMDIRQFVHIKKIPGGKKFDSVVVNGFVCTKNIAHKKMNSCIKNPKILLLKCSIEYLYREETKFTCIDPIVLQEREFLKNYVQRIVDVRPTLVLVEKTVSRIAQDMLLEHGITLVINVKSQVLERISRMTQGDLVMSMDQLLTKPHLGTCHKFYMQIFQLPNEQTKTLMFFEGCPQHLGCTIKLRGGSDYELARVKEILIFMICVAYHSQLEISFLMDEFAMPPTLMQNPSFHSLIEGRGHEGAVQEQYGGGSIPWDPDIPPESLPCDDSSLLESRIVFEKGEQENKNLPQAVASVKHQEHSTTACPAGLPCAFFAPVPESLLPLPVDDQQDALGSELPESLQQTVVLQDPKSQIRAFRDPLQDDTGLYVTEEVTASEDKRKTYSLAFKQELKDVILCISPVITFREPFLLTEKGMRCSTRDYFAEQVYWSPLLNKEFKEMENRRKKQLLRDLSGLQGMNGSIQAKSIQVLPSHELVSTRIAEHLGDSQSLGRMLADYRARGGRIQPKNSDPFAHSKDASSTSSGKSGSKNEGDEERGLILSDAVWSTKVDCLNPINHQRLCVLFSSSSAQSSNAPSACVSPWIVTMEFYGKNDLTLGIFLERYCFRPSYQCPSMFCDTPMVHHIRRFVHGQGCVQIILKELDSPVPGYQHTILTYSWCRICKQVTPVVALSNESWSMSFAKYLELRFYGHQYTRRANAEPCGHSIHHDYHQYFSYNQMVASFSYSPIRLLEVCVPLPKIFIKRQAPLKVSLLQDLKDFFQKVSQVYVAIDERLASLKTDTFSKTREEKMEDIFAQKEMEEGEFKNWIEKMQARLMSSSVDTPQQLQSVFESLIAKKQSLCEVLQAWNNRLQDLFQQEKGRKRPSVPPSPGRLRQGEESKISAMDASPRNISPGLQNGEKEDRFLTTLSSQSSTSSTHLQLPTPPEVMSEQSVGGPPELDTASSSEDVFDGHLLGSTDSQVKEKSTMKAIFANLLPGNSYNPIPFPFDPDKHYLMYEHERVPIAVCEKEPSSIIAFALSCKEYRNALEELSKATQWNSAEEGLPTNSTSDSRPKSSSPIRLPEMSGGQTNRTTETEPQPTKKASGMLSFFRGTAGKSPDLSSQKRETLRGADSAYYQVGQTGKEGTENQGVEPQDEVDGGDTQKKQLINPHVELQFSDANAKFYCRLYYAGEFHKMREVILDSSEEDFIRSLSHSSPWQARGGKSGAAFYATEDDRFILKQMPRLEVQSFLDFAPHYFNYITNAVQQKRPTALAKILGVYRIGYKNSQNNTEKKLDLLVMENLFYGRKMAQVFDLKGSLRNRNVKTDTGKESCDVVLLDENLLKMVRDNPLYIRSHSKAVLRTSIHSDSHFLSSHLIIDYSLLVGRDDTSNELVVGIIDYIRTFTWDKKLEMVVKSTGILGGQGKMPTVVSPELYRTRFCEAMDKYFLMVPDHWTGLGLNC
PIKfyve, sequence (Q9Y2I7 whole entry): as the sequence (Q9Y2I7 whole entry S696N/L932S/Q995L/T998S/S1033A/Q1183K) above, with N696S, S932L, L995Q, S998T, A1033S, K1183Q counted along it

SMILES	IC50 [1] [nM]	IC50 (PIKfyve) [µM]	IC50 [2] [µM]	also measured
Cc1cccc(/C=N/Nc2nc(N3CCOCC3)c3ncccc3n2)c1	8210			
Cc1cccc(/C=N/Nc2cc(N3CCOCC3)nc(OCCc3ccc(CN)cc3)n2)c1	1120			
Oc1cc(C2CCOCC2)nn1-c1cc(N2CCOCC2)n2nc(-c3ccncc3)cc2n1	9100			
Cc1cccc(/C=N/Nc2cc(N3CCOCC3)n3nc(-c4ccncc4)cc3n2)c1 [APY0201]				population of propidium iodide-positive dead cells ([1]; PIKFYVE TDP-43 model, 0.23 μM, FIG. 6): reduced the population of propidium iodide-positive dead cells; viability ([1]; PIKFYVE TDP-43 model, concentrations ranging from 0.5 mM to less than 100 nM): increased viability; viable cells (propidium iodide-negative population) (FAB1 TDP-43 yeast strain; FAB1 TDP-43, across a range of compound concentrations (only 0.23 μM is shown), FIG. 5): no increase in viable cells
Oc1cc(-c2ccccc2)nn1-c1cc(N2CCOCC2)n2nc(-c3ccncc3)nc2n1	693			
Cc1cccc(/C=N/Nc2nc(N3CCOCC3)c3nc(-c4ccncc4)n(C)c3n2)c1 [drawing 206]	4720			
Cc1cccc(/C=N/Nc2cc(N3CCOCC3)n3nc(-c4ccncc4)cc3n2)c1 [drawing 190]				PIKfyve TDP-43 (active/inactive) [1]: Active; FAB1 TDP-43 (active/inactive) (FAB1 TDP-43 yeast strain): Inactive
Cc1cccc(/C=N/Nc2cc(N3CC4CC3CO4)n3nc(-c4ccncc4)cc3n2)c1 (stereo not shown)				PIKfyve TDP-43 (active/inactive) [1]: Active; FAB1 TDP-43 (active/inactive) (FAB1 TDP-43 yeast strain): Inactive
COc1c(Nc2ccncc2)nc(-c2ccncc2)nc1-c1ccnc(-c2ccn(C)n2)c1 [Compound 39, 5-methoxy-6-(2-(1-methyl-1H-pyrazol-3-yl)pyridin-4-yl)-N, 2-di(pyridin-4-yl)pyrimidin-4-amine]		0.01 to 0.1	< 0.01	
COc1c(Nc2ccncc2)nc(N2CCC(O)CC2)nc1-c1cccc(-c2ccn(C)n2)c1 [Compound 46, 1-(5-methoxy-4-(3-(1-methyl-1H-pyrazol-3-yl)phenyl)-6-(pyridin-4-ylamino)pyrimidin-2-yl)piperidin-4-ol]		> 10	0.1 to 1	
CN(C)C(=O)c1c(Nc2ccncc2)nc(N2CCOCC2)nc1-c1cccc(-n2cccn2)c1 [Compound 33]		0.1 to 1	0.01 to 0.1	
c1ccc(-c2cccc(-c3cc(N4CCOCC4)n4nc(-c5ccncc5)cc4n3)n2)cc1	230			
Cn1c(-c2ccncc2)nc2c(N3CCOCC3)ncnc21				PIKfyve TDP-43 (active/inactive) [1]: Inactive; FAB1 TDP-43 (active/inactive) (FAB1 TDP-43 yeast strain): Inactive
c1ccc(-c2ccnc(-c3cc(N4CCOCC4)nc(OCc4ccncc4)n3)n2)cc1	1450			
COc1c(Nc2ccncc2)nc(N2CCOCC2)nc1-c1cccc(-c2cccnn2)c1 [Compound 10, 5-methoxy-2-morpholino-6-(3-(pyridazin-3-yl)phenyl)-N-(pyridin-4-yl)pyrimidin-4-amine]		0.1 to 1	0.01 to 0.1	
COc1c(NCc2cccnc2)nc(-c2ccncc2)nc1-c1cccc(-c2ccn(C)n2)c1 [Compound 62, 5-methoxy-6-(3-(1-methyl-1H-pyrazol-3-yl)phenyl)-N-(pyridin-3-ylmethyl)-2-(pyridin-4-yl)pyrimidin-4-amine]		0.1 to 1	< 0.01	
COc1c(C(=O)Nc2ccccc2)nc(N2CCOCC2)nc1-c1ccn(-c2ccccc2)n1 [Compound 1, 5-methoxy-2-morpholino-N-phenyl-6-(1-phenyl-1H-pyrazol-3-yl)pyrimidine-4-carboxamide]		1 to 10	0.01 to 0.1	
Cn1ccc(-c2ccc3c(c2)-c2nc(N4CCOCC4)nc(Nc4ccncc4)c2OC3)n1 [Compound 49, 9-(1-methyl-1H-pyrazol-3-yl)-2-morpholino-N-(pyridin-4-yl)-6H-isochromeno[4,3-d]pyrimidin-4-amine]		0.1 to 1	0.01 to 0.1	
Cn1ccc(-c2cc3c(cn2)COc2c(Nc4ccncc4)nc(N4CCOCC4)nc2-3)n1 [Compound 38, 9-(1-methyl-1H-pyrazol-3-yl)-2-morpholino-N-(pyridin-4-yl)-6H-pyrido[4′,3′:4,5]pyrano[3,2-d]pyrimidin-4-amine]		0.1 to 1	0.01 to 0.1	
COc1c(Oc2cccnc2)nc(N2CCOCC2)nc1-n1cc(-c2ccccc2)cn1 [Compound 2, 4-(5-methoxy-4-(4-phenyl-1H-pyrazol-1-yl)-6-(pyridin-3-yloxy)pyrimidin-2-yl) morpholine]		1 to 10	0.01 to 0.1	
c1ccc(N2CCc3c(OCc4cccnc4)nc(N4CCOCC4)nc32)cc1	2680			
CN(C)c1cc(N2CCOCC2)n2nc(-c3ccncc3)cc2n1				PIKfyve TDP-43 (active/inactive) [1]: Inactive; FAB1 TDP-43 (active/inactive) (FAB1 TDP-43 yeast strain): Inactive
Fc1cccc(-c2ccnn2-c2nc(N3CCOCC3)c3ncccc3n2)c1	5750			
Cn1ccc(-c2cnc3c(c2)-c2nc(N4CCOCC4)nc(Nc4ccncc4)c2OC3)n1 [Compound 40, 9-(1-methyl-1H-pyrazol-3-yl)-2-morpholino-N-(pyridin-4-yl)-6H-pyrido[3′,2′:4,5] pyrano[3,2-d]pyrimidin-4-amine]		0.01 to 0.1	0.01 to 0.1	
